Results from US12048309B2, “Materials and methods for preventing and dispersing exopolysaccharide-containing biofilms involving Listeria monocytogenes” (University of Wyoming, priority 2021, dated 2024).

These molecules were tested on EPS-biofilm formation by L. monocytogenes (assay: Test of major ingredients of red maple (Acer rubrum) methanol extract for preventing EPS-biofilm formation). Conditions: ingredients of methanol extract of dried red maple stems.
Format: cell-based, Listeria monocytogenes
Protocol: To identify active components responsible for preventing EPS-biofilm formation by L. monocytogenes, major ingredients from methanol extract of dried red maple stems, Acer rubrum, were tested. The tested compositions included catechin, epicatechin, procyanidin A2, epicatechin gallate, nortrachelogenin (also known as pinopalustrin), and nortrachelogenin 8′-O-β-D-glucopyranoside (also known as nortrachelogenin-8′-O-beta-glucoside).
Other major ingredients of the maple methanol extract, including catechin, epicatechin, procyanidin A2, and epicatechin gallate had no effect.

Question: For `O=C(O[C@@H]1Cc2c(O)cc(O)cc2O[C@@H]1c1ccc(O)c(O)c1)c1cc(O)c(O)c(O)c1` [epicatechin gallate], which antibiofilm activity is on record?
Answer: Its antibiofilm activity is “no effect”.

Question: Which antibiofilm activity does the source give for `Oc1cc(O)c2c(c1)O[C@H](c1ccc(O)c(O)c1)[C@H](O)C2` [epicatechin] here?
Answer: Its antibiofilm activity is “no effect”.

Question: How did the antibiofilm activity turn out when `COc1cc(CC2COC(=O)C2(O)Cc2ccc(O)c(OC)c2)ccc1O` (centres unmarked) [nortrachelogenin] was run?
Answer: The antibiofilm activity was “no significant antibiofilm activity”.

Question: Which antibiofilm activity does the source give for `Oc1cc(O)c2c(c1)O[C@@]1(c3ccc(O)c(O)c3)Oc3cc(O)c4c(c3[C@@H]2[C@H]1O)O[C@H](c1ccc(O)c(O)c1)[C@H](O)C4` [procyanidin A2] here?
Answer: The antibiofilm activity was “no effect”.

Question: For catechin, which antibiofilm activity is on record?
Answer: Its antibiofilm activity is “no effect”.
